Among the data in patent US6903118B1, “Piperazinyl-substituted pyridylalkane, alkene and alkine carboxamides” (Klinge Pharma GmbH, priority 1997, dated 2005) are melting point values, retold here.

Molecules are shown by their SMILES.

For `O=C(C=Cc1cccnc1)NCCC(O)CN1CCN(C(c2ccccc2)c2ccccc2)CC1` (stereo not shown) [Substance 29, N-[4-(4-diphenylmethyl-piperazin-1-yl)-3-hydroxy-butyl]-3-pyridin-3-yl-acrylamide], the melting point (usually the temperature of the solid-liquid transition) was in the range of 168 to 171 °C. Next, `O=C(C=Cc1cccnc1)NOCCCN1CCN(C(c2ccccc2)c2ccccc2)CC1` [Substance 30, N-[3-(4-diphenylmethylpiperazin-1-yl)-propoxy]-3-pyridin-3-yl-acrylamide]: 115 to 117 °C; `O=C(C=Cc1cccnc1)NCCCS(=O)(=O)N1CCN(C(c2ccccc2)c2ccccc2)CC1` [Substance 32, N-[3-(4-diphenylmethyl-piperazin-1-yl-sulfonyl)-propyl]-3-pyridin-3-yl-acrylamide]: 167 to 168 °C. Take `O=C(C=Cc1cccnc1)NCCCCN1CCN(c2ccccc2-c2ccccc2)CC1` [Substance 68, N-[4-(4-biphenyl-2-yl-piperazin-1-yl)-butyl)-3-pyridin-3-yl-acrylamide]: the melting point was determined as 115 °C. Next, `O=C(C=Cc1cccnc1)NCCCCN1CCN(C2CCCc3ccccc32)CC1` (stereo not shown) [Substance 87, 3-pyridin-3-yl-N-{4-[4-(1,2,3,4-tetrahydronaphthalin-1-yl)-piperazin-1-yl]-butyl}-acrylamide]: 110 to 114 °C; `O=C(C=Cc1cccnc1)NCCCCN1CCN(c2cccc3c2CCCC3)CC1` [Substance 94, 3-pyridin-3-yl-N-[4-(4-{5,6,7,8-tetrahydro-naphthalin-1-yl}-piperazin-1-yl)-butyl]-acrylamide]: 108 to 109 °C. Molecule `O=C(C=Cc1cccnc1)NCCN1CCN(S(=O)(=O)c2ccc3ccccc3c2)CC1` [Substance 227, N-{2-[4-(naphthalin-2-yl-sulfonyl)-piperazin-1-yl]-ethyl}-3-pyridin-3-yl-acrylamide] had a melting point of 183 to 184 °C.
